SMILES strings stand for the structures. Like-named read-outs stand apart in the source and are kept apart here.

For test [1], the system named is A549 (lung adenocarcinoma). The test is described as follows: MTS cell viability assay, 72 h. Conditions: Table S2, read-out: Anti-proliferation IC50 A549. The class given is cell-based. The source says: (§1) We then screened STR-V-53 and all the synthesized glycosylated HDACi for their effects on the viability of three cell lines: A549 (lung adenocarcinoma), Hep-G2 (HCC), and VERO (a normal kidney epithelial cell). We used SORA and STR-V-48, a previously disclosed nonglycosylated compound, as controls.[25] […] Additionally, compound STR-V-167, the peracetylated analog of STR-V-53, largely retained the Hep-G2 selectivity of STR-V-53 (Table S2). Subsequently, we evaluated the effects of STR-V-53 on cell proliferation using a panel of human HCC cell lines (Huh-7, SK-Hep-1, and Hep3B) as well as Kupffer cells (liver resident macrophages) by MTS assay. We observed that STR-V-53 is 7- to 16-fold more cytotoxic against these HCC cell lines relative to the Kupffer cells (Figure 1g). […] Based on their weak HDAC and cell proliferation inhibition activities, we de-emphasized further evaluation of the class III compounds.
(§2) 10-017-CV), supplemented with 10% fetal bovine serum (FBS) (Corning, 35-010-CV). Hep-G2 cells were cultured in phenol red-free Minimum Essential Medium (MEM) (Corning, 17-305-CV), supplemented with 10% fetal bovine serum (FBS). SK-Hep-1 in ATCC-formulated EMEM (ATCC® 30–2003™); Huh-7 in DMEM (containing 4 mM L-glutamine and 1 g/L glucose) with […]
(§3) Kupffer Cell Media (Sekisui XenoTech, LLC, Cat. #K8700). Cells were seeded into a 96-well plate (2000 counts/100uL) for 24 h prior to treatment and then treated with various drug concentrations for 72 h. All drugs were dissolved in media with DMSO concentration maintained at 1%. The effect of compounds on cell viability was measured using the MTS assay (CellTiter 96 Aqueous One Solution and CellTiter 96 Non-Radioactive Cell Proliferation Assays, Promega, Madison, WI) as described by the manufacturer. IC50s were determined using Prism GraphPad 8. […]

Test [2] concerns VERO (a normal kidney epithelial cell). The test is described as follows: MTS cell viability assay, 72 h. It counts as cell-based. Particulars: Table S2, read-out: Anti-proliferation IC50 VERO.
Source text: as §1, §2, §3

Test [3] concerns Hep-G2 (HCC). The test is described as follows: MTS cell viability assay, 72 h. The class given is cell-based, human. Particulars: for IC50: Table S2, read-out: Anti-proliferation IC50 Hep-G2; for Hep-G2-selectivity (VERO/Hep-G2): ratio of VERO to Hep-G2 cytotoxicity.
Source text: as §1, §2, §3

In test [4] the target is HDAC1 (Homo sapiens, UniProt Q13547). The test is described as follows: HDAC isoform inhibition (BPS Bioscience). Particulars: read-out: HDAC1 IC50; Table S1.
HDAC1, sequence (Q13547 whole entry, canonical isoform): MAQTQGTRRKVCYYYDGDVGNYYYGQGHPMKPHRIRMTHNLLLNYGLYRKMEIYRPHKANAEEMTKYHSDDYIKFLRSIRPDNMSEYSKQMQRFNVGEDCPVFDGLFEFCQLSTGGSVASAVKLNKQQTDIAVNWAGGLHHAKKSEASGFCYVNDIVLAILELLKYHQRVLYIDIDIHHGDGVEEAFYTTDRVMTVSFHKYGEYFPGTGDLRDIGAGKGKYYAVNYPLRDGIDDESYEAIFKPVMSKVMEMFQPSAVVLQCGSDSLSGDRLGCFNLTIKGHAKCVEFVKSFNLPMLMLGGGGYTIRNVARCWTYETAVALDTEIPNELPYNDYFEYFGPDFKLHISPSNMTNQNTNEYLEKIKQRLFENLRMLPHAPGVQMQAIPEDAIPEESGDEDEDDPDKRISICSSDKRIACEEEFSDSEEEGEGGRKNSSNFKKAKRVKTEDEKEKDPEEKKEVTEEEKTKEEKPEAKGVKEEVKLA
The target in test [5] is HDAC2 (Homo sapiens, UniProt Q92769). The test is described as follows: HDAC isoform inhibition (BPS Bioscience). Particulars: read-out: HDAC2 IC50; Table S1.
HDAC2, sequence (Q92769 whole entry, canonical isoform): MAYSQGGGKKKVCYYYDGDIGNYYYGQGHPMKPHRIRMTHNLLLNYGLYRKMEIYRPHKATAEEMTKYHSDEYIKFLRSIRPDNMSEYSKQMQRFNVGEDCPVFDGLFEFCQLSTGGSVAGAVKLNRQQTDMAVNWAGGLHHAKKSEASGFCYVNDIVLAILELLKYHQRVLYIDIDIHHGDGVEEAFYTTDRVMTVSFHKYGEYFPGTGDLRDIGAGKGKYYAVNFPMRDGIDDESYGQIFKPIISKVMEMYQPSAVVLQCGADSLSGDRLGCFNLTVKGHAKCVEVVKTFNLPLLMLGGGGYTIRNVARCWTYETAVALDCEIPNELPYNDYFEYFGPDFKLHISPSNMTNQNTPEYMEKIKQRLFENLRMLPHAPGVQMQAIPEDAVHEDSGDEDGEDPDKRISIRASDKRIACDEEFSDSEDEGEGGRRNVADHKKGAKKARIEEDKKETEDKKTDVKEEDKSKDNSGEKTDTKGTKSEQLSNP
Test [6] has as its target T1, HDAC6 (Homo sapiens, UniProt Q9UBN7).
T1 sequence (Q9UBN7 1-1215): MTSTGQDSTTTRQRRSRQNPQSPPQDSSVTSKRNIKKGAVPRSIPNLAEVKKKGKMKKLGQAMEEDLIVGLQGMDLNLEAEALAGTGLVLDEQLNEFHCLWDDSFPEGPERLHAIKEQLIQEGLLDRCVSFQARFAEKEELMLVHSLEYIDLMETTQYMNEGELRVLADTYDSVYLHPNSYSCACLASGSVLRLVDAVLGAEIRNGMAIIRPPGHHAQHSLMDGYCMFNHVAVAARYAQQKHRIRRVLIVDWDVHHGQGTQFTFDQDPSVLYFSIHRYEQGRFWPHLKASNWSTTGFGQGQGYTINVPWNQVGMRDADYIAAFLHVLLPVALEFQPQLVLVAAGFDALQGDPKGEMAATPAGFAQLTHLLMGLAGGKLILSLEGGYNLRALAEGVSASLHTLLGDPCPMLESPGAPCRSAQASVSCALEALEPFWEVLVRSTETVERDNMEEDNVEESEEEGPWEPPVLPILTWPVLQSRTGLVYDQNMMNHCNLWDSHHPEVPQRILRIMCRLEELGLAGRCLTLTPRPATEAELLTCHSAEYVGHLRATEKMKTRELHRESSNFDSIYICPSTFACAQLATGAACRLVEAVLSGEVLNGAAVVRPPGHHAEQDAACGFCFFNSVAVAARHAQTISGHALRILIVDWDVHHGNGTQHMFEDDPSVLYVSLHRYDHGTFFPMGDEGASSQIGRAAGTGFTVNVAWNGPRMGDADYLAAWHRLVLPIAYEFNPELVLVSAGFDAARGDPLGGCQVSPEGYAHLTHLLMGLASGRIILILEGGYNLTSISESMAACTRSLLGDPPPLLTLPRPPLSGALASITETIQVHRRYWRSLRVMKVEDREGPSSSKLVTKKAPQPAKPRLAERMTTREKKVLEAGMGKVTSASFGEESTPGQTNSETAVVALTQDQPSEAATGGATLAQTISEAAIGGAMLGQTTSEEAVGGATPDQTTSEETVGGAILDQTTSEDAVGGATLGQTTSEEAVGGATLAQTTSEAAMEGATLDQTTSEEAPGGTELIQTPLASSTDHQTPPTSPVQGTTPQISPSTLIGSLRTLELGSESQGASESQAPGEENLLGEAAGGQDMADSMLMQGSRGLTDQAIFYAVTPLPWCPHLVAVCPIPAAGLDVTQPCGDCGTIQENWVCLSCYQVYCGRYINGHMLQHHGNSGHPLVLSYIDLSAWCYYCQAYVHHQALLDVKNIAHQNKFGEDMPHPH
The test is described as follows: HDAC isoform inhibition (BPS Bioscience). Conditions: read-out: HDAC6 IC50; Table S1.

Test [7] has as its target T2, HDAC8 (Homo sapiens, UniProt Q9BY41).
T2 sequence (Q9BY41 1-377): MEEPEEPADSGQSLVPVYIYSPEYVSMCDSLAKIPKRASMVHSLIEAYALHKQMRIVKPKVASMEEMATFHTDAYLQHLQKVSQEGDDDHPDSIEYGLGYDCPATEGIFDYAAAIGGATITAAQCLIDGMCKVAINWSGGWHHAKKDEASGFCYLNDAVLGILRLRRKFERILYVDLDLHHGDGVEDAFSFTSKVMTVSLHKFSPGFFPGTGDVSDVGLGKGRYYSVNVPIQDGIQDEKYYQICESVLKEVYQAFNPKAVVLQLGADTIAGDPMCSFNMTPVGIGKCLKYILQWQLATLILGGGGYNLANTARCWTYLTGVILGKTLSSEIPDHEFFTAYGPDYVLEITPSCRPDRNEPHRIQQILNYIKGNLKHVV
The test is described as follows: HDAC isoform inhibition (BPS Bioscience). Particulars: read-out: HDAC8 IC50; Table S1.

In test [8] the test system is HCC. On the set-up: method as in PMID 22915658. Conditions: HCC patients on belinostat treatment, NCT00321594; cited from earlier work.

Consider `COc1ccc2cc(-c3cn(CCCCCCC(=O)NO)nn3)ccc2c1` [STR-V-48, N-hydroxy-7-(4-(6-methoxynaphthalen-2-yl)-1H-1,2,3-triazol-1-yl)heptanamide, reference compound], for which the IC50 in test [1] (Homo sapiens, A549) amounted to 1.4 ± 0.2 µM; in test [2] (Chlorocebus sabaeus, Vero), 0.2 ± 0.05 µM; in test [3] (Homo sapiens, HepG2) it was 0.4 ± 0.04 µM.

Turning to `CC(=O)OCC1OC(Oc2ccc(-c3cn(CCCCCCC(=O)NO)nn3)cc2)C(OC(C)=O)C(OC(C)=O)C1OC(C)=O` (stereo not shown) [STR-V-167], the IC50 is > 100 µM in test [1]; > 100 µM in test [2]; 10.1 ± 1.2 µM in test [3]; 31.8 nM in test [4]; 66.4 nM in test [5]; 2.61 nM in test [6]. For the same compound, the IC50 in test [7] came out at 311 nM.

Regarding `CC(=O)O[C@H]1[C@H](Oc2ccc(-c3cn(CCCCCCC(=O)NO)nn3)cc2)O[C@H](C)C[C@@H]1N(C)C` [STR-V-165], the IC50 is 33.7 ± 1.8 µM in test [1]; 76.4 µM in test [2]; 9.6 ± 3.4 µM in test [3]; 10.3 nM in test [4]; 27.5 nM in test [5]; 5.22 nM in test [6]. Besides, the IC50 in test [7] turned out to be 806 nM. Also, the “Hep-G2-selectivity (VERO/Hep-G2)” value in test [3] came out at 8 fold.

Take `O=C(CCCCCCn1cc(-c2ccc3cc(O[C@@H]4O[C@H](CO)[C@@H](O)[C@H](O)[C@H]4O)ccc3c2)nn1)NO` [STR-II-36]: the IC50 in test [1] was determined as 20.1 ± 1.1 µM; in test [2], 33.6 ± 5.5 µM; in test [3], 7.5 ± 0.8 µM; in test [4], 3.28 nM; in test [5], 10.4 nM; in test [6], 0.72 nM. In addition, the IC50 in test [7] was found to be 319 nM.

Consider `CC(=O)OCC1OC(Oc2ccc(-c3cn(CCCCCCC(=O)NO)nn3)cc2)C(OC(C)=O)C(OC(C)=O)C1OC(C)=O` (stereo not shown) [STR-V-176], for which the IC50 in test [1] is 64.7 ± 7 µM; in test [2], 77.4 ± 5.6 µM; in test [3], 8 ± 0.9 µM; in test [4], 1.43 nM; in test [5] it was 4.2 nM; in test [6] it was 1.05 nM. Also, the IC50 in test [7] was 271 nM. Besides, in test [3], the “Hep-G2-selectivity (VERO/Hep-G2)” value was found to be 10 fold.

As to `CC(=O)OCC1OC(Oc2ccc3cc(-c4cn(CCCCCCC(=O)NO)nn4)ccc3c2)C(OC(C)=O)C(OC(C)=O)C1OC(C)=O` (stereo not shown) [STR-V-177], the IC50 stood at 39.6 ± 0.6 µM in test [1]; 19.2 ± 0.9 µM in test [2]; 7.4 ± 0.9 µM in test [3]; 2.2 nM in test [4]; 13.2 nM in test [5]; 1.65 nM in test [6]. For the same compound, the IC50 in test [7] amounted to 718 nM.

Take `CNC(=O)c1cc(Oc2ccc(NC(=O)Nc3ccc(Cl)c(C(F)(F)F)c3)cc2)ccn1` [SORA, sorafenib, reference compound]: the IC50 in test [1] (Homo sapiens, A549) turned out to be 18.1 ± 2.9 µM; in test [2] (Chlorocebus sabaeus, Vero), 12.2 ± 0.1 µM; in test [3] (Homo sapiens, HepG2), 3.7 ± 0.4 µM. For the same compound, in test [3], the “Hep-G2-selectivity (VERO/Hep-G2)” value is given as “about three times more cytotoxic”.

Take `O=C(/C=C/c1cccc(S(=O)(=O)Nc2ccccc2)c1)NO` [belinostat]: in test [8], the “Median overall survival (OS)” value is 6.60 months and the “Median progression-free survival (PFS)” value was 2.64 months.

The values are drawn from PMC11475281, “A Novel Liver Cancer-Selective Histone Deacetylase Inhibitor Is Effective against Hepatocellular Carcinoma and Induces Durable Responses with Immunotherapy” (ACS Pharmacology & Translational Science, 2024).
